Assay results published in PubChem BioAssay AID624326 (Sanford-Burnham Center for Chemical Genomics, 2012).
The source made the active and inactive calls.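 How the source made its calls: active means half-inhibitory concentration against fatty acid synthase thioesterase at or below 20 µM; inactive means the rest.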

Target: Fatty acid synthase (Homo sapiens) (UniProt P49327)
Assay: FAS thioesterase domain inhibitors, dose response, biochemical, kinetic fluorescence intensity (AID 624326)
Settings: recombinant FAS-TE, OMFH fluorogenic substrate

Chain of Fatty acid synthase (Homo sapiens) (P49327 whole entry, looked up, the tested form may be a part): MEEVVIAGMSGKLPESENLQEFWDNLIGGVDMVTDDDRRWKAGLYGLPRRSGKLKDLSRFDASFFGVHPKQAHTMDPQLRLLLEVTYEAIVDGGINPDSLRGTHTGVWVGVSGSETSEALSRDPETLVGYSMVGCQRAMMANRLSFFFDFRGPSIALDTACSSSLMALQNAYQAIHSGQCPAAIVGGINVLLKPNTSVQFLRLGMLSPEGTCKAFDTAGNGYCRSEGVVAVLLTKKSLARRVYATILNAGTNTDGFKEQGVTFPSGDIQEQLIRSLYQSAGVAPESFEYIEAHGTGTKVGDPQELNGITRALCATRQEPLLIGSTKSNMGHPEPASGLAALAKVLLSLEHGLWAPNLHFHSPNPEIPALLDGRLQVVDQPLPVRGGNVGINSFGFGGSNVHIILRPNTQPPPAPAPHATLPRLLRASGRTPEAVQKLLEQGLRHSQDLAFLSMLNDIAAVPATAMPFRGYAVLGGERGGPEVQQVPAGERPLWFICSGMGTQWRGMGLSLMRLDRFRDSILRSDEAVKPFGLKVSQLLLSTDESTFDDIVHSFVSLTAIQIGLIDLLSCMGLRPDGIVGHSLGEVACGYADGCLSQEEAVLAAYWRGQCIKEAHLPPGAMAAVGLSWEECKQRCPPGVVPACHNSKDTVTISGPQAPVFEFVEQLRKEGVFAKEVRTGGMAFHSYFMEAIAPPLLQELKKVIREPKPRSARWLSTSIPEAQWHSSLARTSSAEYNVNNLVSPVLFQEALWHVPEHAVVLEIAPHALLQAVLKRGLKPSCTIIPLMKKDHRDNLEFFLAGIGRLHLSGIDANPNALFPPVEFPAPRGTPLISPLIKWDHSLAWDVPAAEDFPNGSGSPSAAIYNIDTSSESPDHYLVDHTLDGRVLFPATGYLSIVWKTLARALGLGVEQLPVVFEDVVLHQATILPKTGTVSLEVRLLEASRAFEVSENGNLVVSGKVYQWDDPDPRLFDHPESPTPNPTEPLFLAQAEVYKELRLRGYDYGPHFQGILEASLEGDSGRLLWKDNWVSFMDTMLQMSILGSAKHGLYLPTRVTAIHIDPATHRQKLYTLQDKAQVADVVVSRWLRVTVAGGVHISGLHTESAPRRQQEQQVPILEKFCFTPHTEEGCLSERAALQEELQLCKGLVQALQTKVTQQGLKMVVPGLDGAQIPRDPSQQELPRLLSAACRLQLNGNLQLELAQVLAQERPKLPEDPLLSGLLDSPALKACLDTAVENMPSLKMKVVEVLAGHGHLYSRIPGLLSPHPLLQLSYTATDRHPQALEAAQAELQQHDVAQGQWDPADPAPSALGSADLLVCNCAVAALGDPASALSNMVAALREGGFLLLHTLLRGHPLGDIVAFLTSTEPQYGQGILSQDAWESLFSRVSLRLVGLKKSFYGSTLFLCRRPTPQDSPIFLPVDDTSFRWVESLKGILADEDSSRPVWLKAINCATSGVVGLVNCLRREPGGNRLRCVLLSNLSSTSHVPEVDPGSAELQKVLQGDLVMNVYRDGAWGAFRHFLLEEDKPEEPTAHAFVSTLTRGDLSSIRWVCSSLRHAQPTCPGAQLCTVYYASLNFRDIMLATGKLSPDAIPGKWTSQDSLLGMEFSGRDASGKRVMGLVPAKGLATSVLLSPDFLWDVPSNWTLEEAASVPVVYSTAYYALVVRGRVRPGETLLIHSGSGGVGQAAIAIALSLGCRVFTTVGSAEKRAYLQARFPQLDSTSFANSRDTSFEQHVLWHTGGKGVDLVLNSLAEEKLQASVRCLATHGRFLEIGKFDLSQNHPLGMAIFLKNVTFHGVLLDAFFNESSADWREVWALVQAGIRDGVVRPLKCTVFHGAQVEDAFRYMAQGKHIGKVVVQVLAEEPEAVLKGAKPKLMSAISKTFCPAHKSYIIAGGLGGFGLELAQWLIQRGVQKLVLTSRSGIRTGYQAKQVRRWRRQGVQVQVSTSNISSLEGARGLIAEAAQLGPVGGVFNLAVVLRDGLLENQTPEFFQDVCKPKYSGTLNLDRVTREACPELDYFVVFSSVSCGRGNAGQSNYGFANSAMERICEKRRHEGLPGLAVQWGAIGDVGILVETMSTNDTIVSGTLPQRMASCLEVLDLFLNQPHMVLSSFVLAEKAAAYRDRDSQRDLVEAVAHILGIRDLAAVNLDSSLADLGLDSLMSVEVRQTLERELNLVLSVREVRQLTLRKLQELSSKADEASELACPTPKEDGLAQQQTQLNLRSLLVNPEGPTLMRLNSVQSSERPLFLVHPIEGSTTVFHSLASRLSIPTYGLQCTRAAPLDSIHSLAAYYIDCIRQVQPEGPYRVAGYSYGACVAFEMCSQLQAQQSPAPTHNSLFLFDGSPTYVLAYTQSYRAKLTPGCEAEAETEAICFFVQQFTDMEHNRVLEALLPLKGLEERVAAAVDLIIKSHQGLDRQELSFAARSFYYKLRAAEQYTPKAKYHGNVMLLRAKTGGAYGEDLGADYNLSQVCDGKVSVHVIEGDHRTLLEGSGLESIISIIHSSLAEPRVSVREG

IC50	SMILES
inactive	CCC(C)(C)C1CCC(=NNS(=O)(=O)c2ccc(C)c([N+](=O)[O-])c2)CC1 (configuration not stated)
206 nM	CCCCC(=O)Nc1nc(-c2ccc(S(=O)(=O)N3CCOCC3)cc2)cs1
